Source: patent publication US20090264342A1, “COMPOSITIONS AND METHODS FOR ANTIBIOTIC POTENTIATION AND DRUG DISCOVERY” (priority 2006, published 2009)
Converted amounts (≈) assume the structure as drawn.

How the values were obtained:
E. coli MG1655 = assay: Hydroxyl radical formation (HPF dye, flow cytometry) in E. coli; type: cell-based; details: E. coli; 250 ng/mL norfloxacin, 5 μg/mL ampicillin, 5 μg/mL kanamycin; bacteriostatic drugs; 3 hours after addition
Description: (§1) Growth Conditions. In the experiments, the growth and survival of untreated exponential phase E. coli, or S. aureus, were compared to cultured treated with antibiotics at the above concentrations. E. coli cultures were treated with norfloxacin, kanamycin, ampicillin, rifamycin SV, chloramphenical, tetracycline, erythromycin, or spectinomycin, where appropriate, S. aureus cultures were treated with norfloxacin, vancomycin or chloramphenical, where appropriate.
(§2) Hydroxyl radical and DNA damage sensor experiments using the flow cytometer. To monitor the occurrence of DNA damage, the engineered DNA damage sensor was used, which responds to auto-cleavage of LexA by activating expression of gfpmut3b. All the drug treatments and the no-drug controls were collected with both the kanamycin- and ampicillin-resistant version of the plasmid, with the exception of the ampicillin treatment (kanamycin plasmid only) and the kanamycin treatment (ampicillin plasmid only). All data were collected using a Becton Dickinson FACSCalibur flow cytometer (Becton Dickinson, San Jose, Calif.) with a 488-nm argon laser and a 515- to 545-nm emission filter (FL1) at low flow rate. The following PMT voltage settings were used: E00 (FSC), 360 (SSC) and 700 (FL1). To detect hydroxyl radical formation, the fluorescent reporter dye, 3′-(p-hydroxyphenyl) fluorescein (HPF, Invitrogen, Carlsbad, Calif.) was used at a concentration of 5 μM (1:1000) dilution), which is oxidized by hydroxyl radicals with high specificity. The following PMT voltage settings were used: E00 (FSC), 360 (SSC) and 825 (FL 1). Calibrite beads (Becton Dickinson) were used for instrument calibration.
Flow data were processed and analyzed with MATLAB (MathWorks, Natick, Mass.) to construct figures. At least 50,000 cells were collected for each sample. In all experiments, cells were grown as described above. Samples were taken immediately before addition of drug (time zero), then every hour for 3 hours. At each timepoint, approximately […] were collected, washed once and resuspended in filtered 1×PBS, pH 7.2 (Fisher Scientific), and fluorescence was measured on the flow cytometer.
In the present study, the Applicants chose to investigate whether hydroxyl radical formation also contributes to antibiotic-induced cell death in bacteria. Using the dye hydroxyphenyl fluorescein, HPF, which is oxidized by hydroxyl radicals with high specificity, hydroxyl radical formation was first observed over a range of hydrogen peroxide concentrations known to induce hydroxyl radicals through the reduction of hydrogen peroxide by ferrous iron. In this manner, it was possible to establish the scale of hydroxyl radical formation detectable using this dye via flow cytometry.

[1] = test system: recA promoter (prec::GFP) in MG1655; assay: Cell-based recA promoter::GFP reporter assay; design: species or system E. coli; details: recA+ bacteria with reporter construct, in the presence of norfloxacin
From the text: As discussed above, the recA promoter is induced when RecA becomes activated as a result of exposure to DNA damaging agents. The present Applicants hypothesized that exposure to a quinolone may have a similar effect on the recA promoter and that this effect could be exploited to develop a cell-based assay for inhibitors of RecA. A low copy reporter plasmid was used in which the recA promoter controls transcription of the mRNA encoding green fluorescent protein (GFP). The plasmid, referred to herein as prec::GFP, has been previously described (Ronen, 2002). See also Kuang, 2004. prec::GFP contains 2821707-2821893 of the E. coli MG1655 genome (numbering based on the sequenced E. coli genome as reported in Blattner, F. R., et al., Science, 277, pp. 1453-1474, 1997) cloned upstream of a promoterless GFPmut3 gene in a low copy pSC101 origin plasmid as described (Kalir, S., et al., Science, 292, pp. 2080-2083, 2001).
The prec::GFP plasmid was introduced into MG1655 and MG1655 recA null strains and measured the fluorescence emitted by GFP in the presence or absence of quinolone as compared with background fluorescence detected from cultures of MG1655 lacking the plasmid. Briefly cells of these three strains were grown to early log phase in LB at 37° C. with shaking. […] After 60 minutes, fluorescence due to GFP expression from the reporter plasmid was measured using a spectrophotometer.

[2] = test system: wild-type strain of S. aureus; assay: Hydroxyl radical formation (HPF dye, flow cytometry) in S. aureus; type: cell-based; details: norfloxacin, chloramphenical
Description: For work with S. aureus, a Staphylococcus aureus subspecies aureus Rosenback strain was used that was obtained from ATCC (29740).
as §1, §2

S. aureus strain RN4220 = assay: MIC of Nor for S. aureus RN4220 and RN4220 recA−; type: cell-based; details: Staphylococcus aureus
Description: The growth and response to quinolone of S. aureus strain RN4220 (wild type) and its recA^− derivative (RN4220 recA^−) were first examined. These strains have been described in the literature (Bayles et al., 1994). The RN4220 recA null mutant (RN4220 recA^−) contains the recA569 allele and is referred to KB103 in Bayles, et al., 1994. […] MICs were determined as described above.
Further details of the assay are as follows: Overnight mutant MG1655 or Staph cultures of clones were grown in 5 mL of LB with appropriate selective agents at 37° C. with shaking. A morning culture was started in a 96 well plate with 16 μL of cells into 1.6 mL of LB and the appropriate plasmid selective agent. […] Serial dilutions were done with 100 μL of drug into 100 μL of H2O. […] 20 μL of each log phase culture was put into a well of one row of a 96 well plate containing […] of LB and the appropriate selective agent. 4.5 μL of each drug concentration was arrayed into the 8 rows of a sterile 300 μL 96-well plate. 250 μL of inoculated culture was added to each column of the sterile 300 μL 96-well plate with drug. The final plate has a different clone in each column and a different Norfloxacin concentration in each row. Plates were grown overnight at 37° C. with shaking. The OD600 of the plate was measured after 16 hours.

[3] = test system: S. aureus strains wt, recAmut, grlA542, grlA542recAmut; assay: MIC for S. aureus wt, recAmut, grlA542 and grlA542recAmut strains; type: cell-based; details: Staphylococcus aureus

## CCn1cc(C(=O)O)c(=O)c2cc(F)c(N3CCNCC3)cc21 [Nor, norfloxacin]
E. coli MG1655
  hydroxyl radical formation: induce hydroxyl radical formation
[1]
  transcription of the recA:GFP reporter gene: increased transcription of the reporter gene
[2]
  hydroxyl radical formation: increase in hydroxyl radical production
S. aureus strain RN4220; RN4220, RN4220
  MIC: 1.53 µg/mL
S. aureus strain RN4220; RN4220, RN4220 recA−
  MIC: 0.38 µg/mL
[3]; strain grlA542 (quinolone resistant)
  MIC: 12.5 µg/mL (≈ 39.1 µM)
[3]; strain grlA542recAmut
  MIC: 1.56 µg/mL (≈ 4.89 µM)
[3]; strain recAmut
  MIC: 0.19 µg/mL (≈ 0.595 µM)
[3]; strain wt
  MIC: 0.78 µg/mL (≈ 2.44 µM)
